Source: article PMC7942396, “Drug Repurposing Screen for Compounds Inhibiting the Cytopathic Effect of SARS-CoV-2” (Frontiers in Pharmacology, 2021)
Where a name gives a salt, the structure may show the parent alone. Read-outs that look alike come from different tables or passages of the source.

Assays:
[1] = tested on: SARS-CoV-2 (USA_WA1/2020); assay: microbe, parasite or virus in culture; type: cell-based
[2] = in vitro; details: African green monkey
[3] = Severe acute respiratory syndrome coronavirus 2, Vero C1008, […], DMSO 0%, no-virus control 100%, hit confirmation, read-out: CPE % efficacy
[4] = Severe acute respiratory syndrome coronavirus 2, Vero C1008, SARS-CoV-2 CPE assay, Vero E6 cells, read-out: CPE % Efficacy
[5] = Severe acute respiratory syndrome coronavirus 2, Vero C1008, SARS-CoV-2 CPE assay, Vero E6 cells, read-out: CPE EC50
[6] = Severe acute respiratory syndrome coronavirus 2, Vero C1008, SARS-CoV-2 CPE assay, Vero E6 cells, confirmed anti-SARS-CoV-2 compounds, read-out: CPE EC50
[7] = Severe acute respiratory syndrome coronavirus 2, Vero C1008, SARS-CoV-2 CPE assay, Vero E6 cells, efficacy, read-out: CPE % Efficacy
[8] = Severe acute respiratory syndrome coronavirus 2, Vero C1008, read-out: CPE % Efficacy
[9] = Severe acute respiratory syndrome coronavirus 2, Vero C1008, read-out: CPE EC50

SMILES	Emax [1, 4]	EC50 [1, 5]	cytotoxicity [2]	EC50 [1, 6]	Emax [1, 7]	cytotoxicity at 72 h [2]	CC50 [2]	also measured
CNCc1ccc(-c2cc(-c3nc(-c4ccc(S(=O)(=O)C(C)C)cc4)cnc3N)on2)cc1 [Berzosertib, reference compound]	–	–	–	–	–	–	–	Shape of concentration-response in the CPE assay ([1]; Figure 3): bell-shaped concentration-responses due to cytotoxicity; EC50 ([1]; Severe acute respiratory syndrome coronavirus 2, Vero C1008, 72 h, read-out: CPE EC50): 0.71 µM; Emax [1, 3]: 87.9%; CC50 at 72 h [2]: 11.2 µM
CCOC(=O)[C@H](CCc1ccccc1)N[C@H]1CCc2ccccc2N(CC(=O)O)C1=O [Benazepril]	108%	12.6 µM	0%	–	–	–	–	–
O=c1[nH]c2ccccc2n1CCCN1CCN(C(c2ccccc2)c2ccccc2)CC1 [Oxatomide]	–	–	–	10 µM	83.9%	31.3%	–	–
COc1ccc2c(c1)[C@]1(C[C@H]1c1ccc3c(/C=C/c4ccc(CN5C[C@@H](C)O[C@@H](C)C5)cc4)n[nH]c3c1)C(=O)N2 [CFI-400945]	–	–	–	11.2 µM	77.8%	31.4%	–	–
CSc1ccc(C(=O)/C=C/c2cc(C)c(OC(C)(C)C(=O)O)c(C)c2)cc1 [Elafibranor]	55.7%	19.9 µM	–	–	–	0%	–	–
Fc1ccc2[nH]ccc2c1-c1nc(N2CCOCC2)c2sc(CN3CCN(CC4CC4)CC3)cc2n1 [PI-3065]	32.7%	14.1 µM	–	–	–	52.2%	–	CC50 at 72 h [2]: 5.62 µM
COC(=O)[C@@]12OC[C@]34[C@H]([C@@H](O)[C@@H]1O)[C@@]1(C)CC(=O)C(O)=C(C)[C@@H]1C[C@H]3OC(=O)[C@H](OC(=O)/C=C(\C)C(C)C)[C@@H]24 [Bruceantin]	–	–	83.3%	0.0319 µM	42.5%	–	0.14 µM	–
Oc1ccc(-c2nc(-c3ccncc3)c(-c3ccc(F)cc3)[nH]2)cc1 [SB-202190]	–	–	–	3.98 µM	95.8%	62.4%	–	–
c1ccc(-c2cc(CCC3CCNCC3)c3ccccc3n2)cc1 [Pipequaline]	–	–	–	10 µM	33.3%	108%	–	CC50 at 72 h [2]: 12.6 µM
CC1CCCCN1CCCOC(=O)c1ccc(OC2CCCCC2)cc1 (stereo not drawn) [Cyclomethycaine]	–	–	–	8.91 µM	79.7%	9.6%	–	CC50 at 72 h [2]: 17.8 µM
CN1CCC(c2cn(C)c3ccc(OS(=O)(=O)c4c(F)cccc4F)cc23)CC1 [SGS 518]	101%	12.6 µM	18.2%	–	–	–	8.91 µM	–
COC(=O)[C@H]1[C@H]2C[C@@H]3c4[nH]c5cc(OC)ccc5c4CCN3C[C@H]2C[C@@H](OC(=O)c2cc(OC)c(OC)c(OC)c2)[C@@H]1OC [Reserpine]	–	–	13.4%	11.2 µM	91.8%	–	19.9 µM	–
CCCc1cc(C)[nH]c(=O)c1CNC(=O)c1cc(-c2ccnc(N3CCN(C)CC3)c2)cc2c1cnn2C(C)C [GSK-343]	51.7%	14.1 µM	16.6%	–	–	–	10 µM	–
CNCCCN1c2ccccc2CCc2ccccc21 [Desipramine hydrochloride]	–	–	9.2%	11.2 µM	43.7%	–	5.01 µM	–
CCCCCCCCn1cc(CC(N)=O)c2cc(-c3cccc(C)c3)ccc21 [Cysmethynil]	–	–	–	11.2 µM	89.1%	106%	–	–
CN1CCN(CC/C=C2/c3ccccc3Sc3ccc(S(=O)(=O)N(C)C)cc32)CC1 [THIOTHIXENE]	–	–	108%	3.98 µM	70.6%	–	12.6 µM	–
CC(/C=C/[C@@H]1C[C@]1(C)c1ccc2c(c1)C(C)(C)CCC2(C)C)=C\C(=O)O [AGN-194204]	–	–	–	11.2 µM	57%	36.8%	–	–
CC(CN1c2ccccc2Sc2ccc(S(=O)(=O)N(C)C)cc21)N(C)C (stereo not drawn) [Fonazine]	–	–	–	11.2 µM	36.6%	0%	–	–
CCn1c(-c2nonc2N)nc2cnc(Oc3cccc(NC(=O)c4ccc(OCCN5CCOCC5)cc4)c3)cc21 [GSK-269962A]	–	–	56.8%	7.94 µM	41.8%	–	2 µM	–
S=C(NCc1ccc2c(c1)OCO2)N1CCN(c2ncnc3c2oc2ccccc23)CC1 [Amuvatinib]	–	–	30.1%	3.55 µM	69.8%	–	3.16 µM	–
CCCCc1oc2ccccc2c1C(=O)c1cc(I)c(OCCN(CC)CC)c(I)c1 [Amiodarone hydrochloride, reference compound]	–	–	< 30%	–	–	–	–	Emax [1, 3]: 100%
Clc1ccc2c(c1)N=C(N1CCNCC1)c1ccccc1N2 [N-Desmethylclozapine]	31.1%	14.1 µM	–	–	–	20.1%	–	CC50 at 72 h [2]: 10 µM
COc1ccc(-c2csc(NC(=O)[C@H]3CCCCN3S(=O)(=O)c3ccc(C)cc3)n2)cc1 [ML277]	–	–	0%	10 µM	45.4%	–	–	–

SMILES	Emax [1, 4]	EC50 [1, 5]	cytotoxicity [2]	EC50 [1, 6]	Emax [1, 7]	cytotoxicity at 72 h [2]	CC50 [2]	also measured
COc1cc(C(C)=O)ccc1OCCCN1CCC(c2noc3cc(F)ccc23)CC1 [Iloperidone]	108%	12.6 µM	–	–	–	16.4%	–	CC50 at 72 h [2]: 15.8 µM
CN1CCN(C(c2ccccc2)c2ccc(Cl)cc2)CC1 (stereo not drawn) [Chlorcyclizine]	67.4%	12.6 µM	–	–	–	18%	–	CC50 at 72 h [2]: 22.4 µM
CN(C)CCOC(c1ccccc1)c1ccc(Br)cc1 (stereo not drawn) [Bromodiphenhydramine]	36%	12.6 µM	–	–	–	0%	–	–
O=C(Nc1ccc(-c2ccnc(Nc3ccc(N4CCOCC4)cc3)n2)cc1)C1CCCN1 (stereo not drawn) [XL019]	53.9%	14.1 µM	61.8%	–	–	–	8.91 µM	–
CCc1ccc(N(CC(C)C)S(=O)(=O)c2ccc(OCC3CCOCC3)c(CO)c2)cc1 [GSK-2981278]	36%	14.1 µM	–	–	–	51.1%	–	CC50 at 72 h [2]: 12.6 µM
Clc1ccc2c(c1)C(N1CCNCC1)=Nc1ccccc1O2 [Amoxapine]	–	–	13.9%	–	34.1%	–	–	–
CN(C)CC/C=C1\c2ccccc2CSc2ccccc21 [Dosulepin hydrochloride]	30.8%	14.1 µM	17.2%	–	–	–	12.6 µM	–
CC1(C)CC(=O)c2c(C(F)(F)F)nn(-c3ccc(C(N)=O)c(N[C@H]4CC[C@H](OC(=O)CN)CC4)c3)c2C1 [SNX-5422]	–	–	27.4%	1.58 µM	33.8%	–	0.56 µM	–
Cc1ccc(-c2cc(C(F)(F)F)nn2-c2ccc(S(N)(=O)=O)cc2)cc1 [Celecoxib]	–	–	9%	11.2 µM	79.2%	–	15.8 µM	–
C=C1C(=O)[C@]23[C@H](O)[C@H]1CC[C@H]2[C@@]12CO[C@]3(O)[C@@H](O)[C@@H]1C(C)(C)CC[C@@H]2O [Oridonin]	130%	11.2 µM	27.4%	–	–	–	–	–
CCn1c(=O)c(-c2cc(NC(=O)Nc3ccccc3)c(F)cc2Br)cc2cnc(NC)cc21 [DCC-2618]	65.4%	12.6 µM	–	–	–	48.5%	–	CC50 at 72 h [2]: 11.2 µM
CC(C)COCC(CN(Cc1ccccc1)c1ccccc1)N1CCCC1 (stereo not drawn) [Bepridil]	–	–	25.4%	11.2 µM	113%	–	22.4 µM	–
CNCCCC1c2ccccc2C=Cc2ccccc21 [Protriptyline hydrochloride]	–	–	17.4%	–	–	–	12.6 µM	Emax [1, 8]: 58.2%; EC50 [1, 9]: 11.2 µM
O=C(/C=C/c1ccccc1)NC(NC(=S)Nc1cccc2cccnc12)C(Cl)(Cl)Cl (stereo not drawn) [Salubrinal]	–	–	15.9%	10 µM	38.3%	–	5.01 µM	–
COC(=O)C1=C(C)NC(C)=C(C(=O)OCCN(C)Cc2ccccc2)C1c1cccc([N+](=O)[O-])c1 (stereo not drawn) [Nicardipine]	56.3%	12.6 µM	32.8%	–	–	–	12.6 µM	–
NC(=O)c1cccc2cn(-c3ccc([C@@H]4CCCNC4)cc3)nc12 [Niraparib]	–	–	24.3%	–	–	–	15.8 µM	Emax [1, 8]: 134%; EC50 [1, 9]: 11.2 µM
Cn1c(Nc2ccc(C(F)(F)F)cc2)nc2cc(Oc3ccnc(-c4ncc(C(F)(F)F)[nH]4)c3)ccc21 [CHIR-265]	–	–	92.7%	0.79 µM	31.7%	–	0.32 µM	–
Oc1c(I)cc(Cl)c2cccnc12 [Clioquinol]	–	–	–	6.31 µM	55.1%	62.2%	–	CC50 at 72 h [2]: 3.16 µM
COc1ccc2cc1Oc1ccc(cc1)C[C@H]1c3c(cc4c(c3Oc3cc5c(cc3OC)CCN(C)[C@@H]5C2)OCO4)CCN1C [Cepharanthine]	–	–	105%	1.41 µM	91.3%	–	11.2 µM	–
N#Cc1ccc2c(c1)N(CCCN1CCC(O)CC1)c1ccccc1S2 [PERICIAZINE]	107%	12.6 µM	23.1%	–	–	–	–	–
COc1cc(N2CCN(C)CC2)ccc1Nc1nccc(-c2cn(C)c3cnccc23)n1 [AZ-191]	–	–	31.2%	8.91 µM	79.2%	–	11.2 µM	–
CCN(CC)CCN(Cc1ccc(-c2ccc(C(F)(F)F)cc2)cc1)C(=O)Cn1c(SCc2ccc(F)cc2)nc(=O)c2c1CCC2 [Darapladib]	–	–	102%	2.82 µM	75.1%	–	11.2 µM	–
Nc1nc(Nc2ccc3c(c2)CC[C@@H](N2CCCC2)CC3)nn1-c1cc2c(nn1)-c1ccccc1CCC2 [Bemcentinib]	–	–	–	3.55 µM	69.6%	115%	–	CC50 at 72 h [2]: 11.2 µM
